Assay results from ChEMBL document CHEMBL1201862, “PubChem BioAssay data set” (2004).
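Growth conditions: 96-well plates. Treatment: test compound, 48 hours, 5 concentrations. Analysis: linear interpolation between bracketing concentrations; unreached endpoints set to highest concentration. Here, GI50 denotes the concentration required for 50% inhibition of growth.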 Active and inactive are the calls of the source. No stated cut-off is given here; in the data, active = GI50 up to about 1.1 µM and inactive = higher.

How the values were obtained:
Assay in all cases: NCI tumour cell line growth inhibition, 48 h
CCRF-CEM = tested on: CCRF-CEM
COLO 205 = tested on: COLO 205
EKVX = tested on: EKVX
HOP-92 = tested on: HOP-92
IGROV-1 = tested on: IGROV-1
NCI-H460 = tested on: NCI-H460
OVCAR-8 = tested on: OVCAR-8
RPMI-8226 = tested on: RPMI-8226
SF-295 = tested on: SF-295
SK-MEL-2 = tested on: SK-MEL-2
SK-OV-3 = tested on: SK-OV-3
SNB-19 = tested on: SNB-19
SNB-75 = tested on: SNB-75
SW-620 = tested on: SW-620
U-251 = tested on: U-251
UACC-62 = tested on: UACC-62
ACHN = tested on: ACHN
MCF7 = tested on: MCF7
NCI-H522 = tested on: NCI-H522
SR = tested on: SR

SMILES	GI50 (CCRF-CEM)	GI50 (COLO 205)	GI50 (EKVX)	GI50 (HOP-92)	GI50 (IGROV-1)	GI50 (NCI-H460)	GI50 (OVCAR-8)	GI50 (RPMI-8226)	GI50 (SF-295)	GI50 (SK-MEL-2)	GI50 (SK-OV-3)	GI50 (SNB-19)	GI50 (SNB-75)	GI50 (SW-620)	GI50 (U-251)	GI50 (UACC-62)	GI50 (ACHN)	GI50 (MCF7)	GI50 (NCI-H522)	GI50 (SR)
CC(C)=CCC(OC(=O)C=C(C)C)c1cc(O)c2c(c1O)C(=O)C=CC2=O (configuration not stated)	0.0208 µM (active)	0.382 µM (active)	0.933 µM (active)	0.469 µM (active)	2.04 µM (inactive)	2.75 µM (inactive)	0.33 µM (active)	0.171 µM (active)	2.95 µM (inactive)	2.01 µM (inactive)	5.45 µM (inactive)	7.46 µM (inactive)	4.98 µM (inactive)	0.267 µM (active)	3.08 µM (inactive)	0.783 µM (active)	–	–	–	–
Nc1nnc2ccc(Cl)cc2[n+]1[O-]	29.6 µM (inactive)	24.4 µM (inactive)	47.6 µM (inactive)	–	31.8 µM (inactive)	–	24.9 µM (inactive)	> 100 µM (inactive)	> 100 µM (inactive)	49.3 µM (inactive)	28.6 µM (inactive)	> 100 µM (inactive)	> 100 µM (inactive)	36.5 µM (inactive)	> 100 µM (inactive)	49 µM (inactive)	62.7 µM (inactive)	70.1 µM (inactive)	38 µM (inactive)	46.3 µM (inactive)
O=c1c(-c2ccccc2)c(SCCN2CCCCCC2)n(-c2ccccc2)c(=S)n1-c1ccccc1	8.45 µM (inactive)	30.4 µM (inactive)	17.7 µM (inactive)	15.2 µM (inactive)	45.8 µM (inactive)	46.8 µM (inactive)	80 µM (inactive)	20.7 µM (inactive)	83.9 µM (inactive)	–	> 100 µM (inactive)	–	> 100 µM (inactive)	37.2 µM (inactive)	–	48.9 µM (inactive)	54.6 µM (inactive)	24.9 µM (inactive)	20.3 µM (inactive)	21.8 µM (inactive)
CC1=CC[C@H](C)C(C)(C)C1/C=C/C(C)=C/CC[C@@]1(CO)[C@H](CCCO)/C(=C(/C)C=O)CC[C@]1(C)O (some centres not stated)	4.21 µM (inactive)	1.05 µM (active)	2.2 µM (inactive)	< 0.01 µM (active)	11.7 µM (inactive)	1.11 µM (active)	15 µM (inactive)	–	1.23 µM (inactive)	15.8 µM (inactive)	25.2 µM (inactive)	8.51 µM (inactive)	–	2.01 µM (inactive)	2.86 µM (inactive)	–	3.68 µM (inactive)	–	4.06 µM (inactive)	0.493 µM (active)
COc1cc(/N=N\c2ccc(OC)c(S(=O)(=O)O)c2)c(C)cc1/N=N\c1ccc(/C=C/c2ccc(/N=[N+](/[O-])c3ccc(/C=C/c4ccc(/N=N/c5cc(C)c(/N=N\c6ccc(OC)c(S(=O)(=O)O)c6)cc5OC)cc4S(=O)(=O)O)c(S(=O)(=O)O)c3)cc2S(=O)(=O)O)c(S(=O)(=O)O)c1	> 100 µM (inactive)	> 100 µM (inactive)	> 100 µM (inactive)	> 75.2 µM (inactive)	> 100 µM (inactive)	> 100 µM (inactive)	> 100 µM (inactive)	> 100 µM (inactive)	> 100 µM (inactive)	> 100 µM (inactive)	> 100 µM (inactive)	> 100 µM (inactive)	58.2 µM (inactive)	> 100 µM (inactive)	> 100 µM (inactive)	> 100 µM (inactive)	–	> 100 µM (inactive)	> 100 µM (inactive)	–
Cc1ccc(NC(=O)S(N)(c2ccc(C)cc2)[N+](=O)[O-])cc1 (configuration not stated)	> 100 µM (inactive)	> 100 µM (inactive)	–	> 100 µM (inactive)	> 100 µM (inactive)	> 100 µM (inactive)	> 100 µM (inactive)	> 100 µM (inactive)	> 100 µM (inactive)	> 100 µM (inactive)	> 100 µM (inactive)	> 100 µM (inactive)	> 100 µM (inactive)	> 100 µM (inactive)	> 100 µM (inactive)	> 100 µM (inactive)	–	> 100 µM (inactive)	–	> 100 µM (inactive)
